According to patent US7943551B2, “3-cyclopropyl-4-(3-thiobenzoyl) pyrazoles and their use as herbicides” (Bayer Cropscience AG, priority 2007, dated 2011):

Key:
Format in all cases: in vivo
Stellaria media = test: Post-emergence herbicidal action; conditions: 80 g of a.i./ha, visual scoring 3-4 weeks after treatment; for pest or weed control at 80 g/ha: Stellaria media, read-out: Herbicidal activity in % against STEME
Method: (§1) Seeds of mono- and dicotyledonous harmful plants are placed in sandy loam in cardboard pots, covered with soil and grown in the greenhouse under good growth conditions. Two to three weeks after sowing, the test plants are treated at the three-leaf stage. The compounds according to the invention, which are formulated as wettable powders or as emulsion concentrates, are sprayed at an application rate of 600 to 800 l of water/ha (converted) in a dosage of 80 grams per hectare onto the surface of the green plant parts. The visual scoring of the damage to the harmful plants is carried out 3-4 weeks after the treatment. Here, the compounds of Nos. 1-39, 1-40, 1-1382 and 1-2091 show an activity of at least 90% against Echinochloa crus galli. The compounds of Nos. 1-3, 1-44 and 1-2091 shown an activity of at least 90% against Abutilon theophrasti. The compounds of Nos. 1-39, 1-40 and 1-1382 show an activity of at least 90% against Veronica persica. The compounds of Nos. 1-3, 1-38, 1-39, 1-1406 and 1-1407 show an activity of at least 90% against Stellaria media.
(§2) The comparative tests of Tables 1 to 24 below show the superiority of the compounds according to the invention over the compounds known from the prior art.
(§3) • ABUTH Abutilon theophrasti ALOMY Alopecurus myosuroides • AMARE Amaranthus retroflexus AVEFA Avena fatua • CHEAL Chenopodium album ECHCG Echinochloa crus galli • GALAP Galium aparine LOLMU Lolium multiflorum • MATIN Matricaria inodora PHBPU Pharbitis purpureum • POLCO Fallopia convolvulus STEME Stellaria media • VERPE Veronica persica VIOTR Viola tricolor • XANST Xanthium strumarium Crop Plants • GLXMA Glycine max (soybeans) TRZAS Triticum aestivum (wheat) • ZEAMX Zea mays (corn)

Veronica persica = test: Post-emergence herbicidal action; conditions: 80 g of a.i./ha, visual scoring 3-4 weeks after treatment, read-out: Herbicidal activity in % against VERPE
Method: as §1, §2, §3

Pharbitis purpureum = test: Post-emergence herbicidal action; conditions: 80 g of a.i./ha
Method: as §1, §2, §3

Viola tricolor [1] = test: Pre-emergence herbicidal action; conditions: 80 g of a.i./ha
Description: Seeds or rhizome pieces of mono- and dicotyledonous harmful plants are placed in sandy loam in pots of a diameter of 9 to 13 cm and covered with soil. The herbicides, formulated as emulsifiable concentrates or dusts, are applied to the surface of the covering soil in the form of aqueous dispersions or suspensions or emulsions at an application rate of 300 to 800 l of water/ha (converted), […] For further cultivation of the plants, the pots are then kept in a greenhouse under optimum conditions. The visual scoring of the damage to the harmful plants is carried out 3-4 weeks after the treatment. Here, the compounds of Nos. 1-3, 1-15, 1-44 and 1-1407 show an activity of at least 90% against Echinochloa crus galli. The compounds of Nos. 1-15, 1-45, 1-1407 and 1-1419 show an activity of at least 90% against Abutilon theophrasti. The compounds of Nos. 1-3, 1-45, 1-1406 and 1-1418 show an activity of at least 90% against Amaranthus retroflexus. The compounds of Nos. 1-44, 1-1406, 1-1407 and 1-1419 show an activity of at least 90% against Stellaria media.
as §2, §3

Matricaria inodora [2] = test: Post-emergence herbicidal action; conditions: Tripleurospermum inodorum, 80 g of a.i./ha, read-out: Herbicidal activity in % against MATIN
Method: as §1, §2, §3

Viola tricolor [3] = test: Post-emergence herbicidal action; conditions: 80 g of a.i./ha, read-out: Herbicidal activity in % against VIOTR
Method: as §1, §2, §3

Abutilon theophrasti [4] = test: Post-emergence herbicidal action; conditions: for pest or weed control at 80 g/ha / pest or weed control at 20 g/ha: Abutilon theophrasti, read-out: Herbicidal activity in % against ABUTH; for pest or weed control at 20 g/ha: 20 g of a.i./ha
Method: as §1, with “The compounds according to the invention, which are formulated as wettable powders or as emulsion concentrates, are sprayed at an application rate of 600 to 800 l of water/ha (converted) in a dosage of 80 grams per hectare onto the surface of the green plant parts.” left out
as §2, §3

Echinochloa crus galli = test: Post-emergence herbicidal action; conditions: read-out: Herbicidal activity in % against ECHCG; for pest or weed control at 80 g/ha: 80 g of a.i./ha, visual scoring 3-4 weeks after treatment; for pest or weed control at 20 g/ha: 20 g of a.i./ha
Method: as §1, §2, §3

Xanthium strumarium = test: Post-emergence herbicidal action; conditions: read-out: Herbicidal activity in % against XANST; for pest or weed control at 20 g/ha: 20 g of a.i./ha; for pest or weed control at 80 g/ha: 80 g of a.i./ha
Method: as §1, §2, §3

Abutilon theophrasti [5] = test: Pre-emergence herbicidal action; conditions: 320 g of a.i./ha, visual scoring 3-4 weeks after treatment
Description: (§4) Seeds or rhizome pieces of mono- and dicotyledonous harmful plants are placed in sandy loam in pots of a diameter of 9 to 13 cm and covered with soil. The herbicides, formulated as emulsifiable concentrates or dusts, are applied to the surface of the covering soil in the form of aqueous dispersions or suspensions or emulsions at an application rate of 300 to 800 l of water/ha (converted), at a dosage of 320 grams per hectare. For further cultivation of the plants, the pots are then kept in a greenhouse under optimum conditions. The visual scoring of the damage to the harmful plants is carried out 3-4 weeks after the treatment. Here, the compounds of Nos. 1-3, 1-15, 1-44 and 1-1407 show an activity of at least 90% against Echinochloa crus galli. The compounds of Nos. 1-15, 1-45, 1-1407 and 1-1419 show an activity of at least 90% against Abutilon theophrasti. The compounds of Nos. 1-3, 1-45, 1-1406 and 1-1418 show an activity of at least 90% against Amaranthus retroflexus. The compounds of Nos. 1-44, 1-1406, 1-1407 and 1-1419 show an activity of at least 90% against Stellaria media.
as §2, §3

Matricaria inodora [6] = test: Pre-emergence herbicidal action; conditions: Tripleurospermum inodorum, 320 g of a.i./ha, read-out: Herbicidal activity in % against MATIN
Description: as §4, §2, §3

[7] = 80 g of a.i./ha, visual scoring 3-4 weeks after treatment

SMILES: COCCSc1c(S(C)(=O)=O)ccc(C(=O)c2c(C3CC3)nn(C)c2O)c1Cl [drawing 51]
- Herbicidal activity in % against STEME (Stellaria media): 90%
- pest or weed control at 80 g/ha (Veronica persica): 100%
- Herbicidal activity in % against PHBPU (Pharbitis purpureum): 60%

SMILES: COCC[S+]([O-])c1c(S(C)(=O)=O)ccc(C(=O)c2c(C3CC3)nn(C)c2O)c1C (stereo not shown) [drawing 11]
- Herbicidal activity in % against VIOTR (Viola tricolor [1]): 70%

SMILES: Cc1c(C(=O)c2c(C3CC3)nn(C)c2O)ccc(S(C)(=O)=O)c1SCC1CC1 [No. 1-38, 3-cyclopropyl-4-(3-cyclopropylmethylthio-2-methyl-4-methylsulfonylbenzoyl)-5-hydroxy-1-methylpyrazole]
- pest or weed control at 80 g/ha (Stellaria media): ≥ 90%

SMILES: Cc1c(C(=O)c2c(C3CC3)nn(C)c2O)ccc(Cl)c1SCC1CC1 [No. 1-1406, 4-(4-chloro-3′-cyclopropylmethylthio-2-methylbenzoyl)-3-cyclopropyl-5-hydroxy-1-methylpyrazole]
- pest or weed control at 80 g/ha (Stellaria media): ≥ 90%

SMILES: CCSc1c(S(C)(=O)=O)ccc(C(=O)c2c(C3CC3)nn(C)c2O)c1Cl [drawing 48, reference compound]
- pest or weed control at 80 g/ha (Matricaria inodora [2]): 0%
- pest or weed control at 80 g/ha (Viola tricolor [3]): 60%
- pest or weed control at 80 g/ha (Abutilon theophrasti [4]; [7]): 80%

SMILES: COCCSc1c(S(C)(=O)=O)ccc(C(=O)c2c(C3CC3)nn(C)c2O)c1Cl [drawing 47]
- pest or weed control at 80 g/ha (Matricaria inodora [2]): 70%
- pest or weed control at 80 g/ha (Viola tricolor [3]): 70%
- Herbicidal activity in % against ABUTH (Abutilon theophrasti [4]; [7]): 90%

SMILES: COCCSc1c(Cl)ccc(C(=O)c2c(C3CC3)nn(C)c2O)c1C [drawing 41]
- pest or weed control at 80 g/ha (Stellaria media): 100%
- Herbicidal activity in % against PHBPU (Pharbitis purpureum): 80%
- pest or weed control at 80 g/ha (Echinochloa crus galli): 90%
- pest or weed control at 80 g/ha (Matricaria inodora [2]): 80%

SMILES: CSc1c(S(C)(=O)=O)ccc(C(=O)c2c(C3CC3)nn(C)c2O)c1Cl [drawing 50, reference compound]
- pest or weed control at 80 g/ha (Matricaria inodora [2]): 30%
- pest or weed control at 80 g/ha (Viola tricolor [3]): 60%
- pest or weed control at 80 g/ha (Abutilon theophrasti [4]; [7]): 80%

SMILES: CCSc1c(Cl)ccc(C(=O)c2c(C3CC3)nn(C)c2O)c1Cl [reference compound]
- pest or weed control at 20 g/ha (Xanthium strumarium): 50%
- pest or weed control at 20 g/ha (Abutilon theophrasti [4]): 40%

SMILES: COCCSc1c(S(C)(=O)=O)ccc(C(=O)c2c(C3CC3)nn(C)c2O)c1C
- pest or weed control at 80 g/ha (Xanthium strumarium): 90%
- pest or weed control at 80 g/ha (Echinochloa crus galli): 90%
- pest or weed control at 80 g/ha (Viola tricolor [3]): 90%

SMILES: COCCSc1c(C(F)(F)F)ccc(C(=O)c2c(C3CC3)nn(C)c2O)c1C [drawing 19]
- Herbicidal activity in % against ABUTH (Abutilon theophrasti [5]): 100%
- pest or weed control at 320 g/ha (Matricaria inodora [6]): 60%

SMILES: Cn1nc(C2CC2)c(C(=O)c2ccc(Cl)c(SCC3CC3)c2Cl)c1O
- pest or weed control at 20 g/ha (Xanthium strumarium): 70%
- pest or weed control at 20 g/ha (Abutilon theophrasti [4]): 60%

SMILES: CSc1c(C(F)(F)F)ccc(C(=O)c2c(C3CC3)nn(C)c2O)c1C [drawing 20]
- Herbicidal activity in % against ABUTH (Abutilon theophrasti [5]): 50%
- pest or weed control at 320 g/ha (Matricaria inodora [6]): 0%

SMILES: Cc1c(C(=O)c2c(C3CC3)nn(C)c2O)ccc(S(C)(=O)=O)c1SCC1CC1 [drawing 29]
- pest or weed control at 80 g/ha (Xanthium strumarium): 90%
- pest or weed control at 80 g/ha (Echinochloa crus galli): 100%
- pest or weed control at 80 g/ha (Viola tricolor [3]): 90%

SMILES: CC[S+]([O-])c1c(S(C)(=O)=O)ccc(C(=O)c2c(C3CC3)nn(C)c2O)c1C (stereo not shown)
- Herbicidal activity in % against VIOTR (Viola tricolor [1]): 60%

SMILES: COCCSc1c(C(F)(F)F)ccc(C(=O)c2c(C3CC3)nn(C)c2O)c1C [No. 1-2091, 3-cyclopropyl-5-hydroxy-4-(3-(2-methoxyethyl)thio-2-methyl-4-trifluoromethylbenzoyl)-1-methylpyrazole]
- pest or weed control at 80 g/ha (Echinochloa crus galli): ≥ 90%
- pest or weed control at 80 g/ha (Abutilon theophrasti [4]; [7]): ≥ 90%

SMILES: CSc1c(S(C)(=O)=O)ccc(C(=O)c2c(C3CC3)nn(C)c2O)c1Cl [drawing 52, reference compound]
- pest or weed control at 80 g/ha (Stellaria media): 80%
- pest or weed control at 80 g/ha (Veronica persica): 80%
- Herbicidal activity in % against PHBPU (Pharbitis purpureum): 50%

SMILES: CCSc1c(S(C)(=O)=O)ccc(C(=O)c2c(C3CC3)nn(C)c2O)c1C [reference compound]
- pest or weed control at 80 g/ha (Xanthium strumarium): 80%
- pest or weed control at 80 g/ha (Echinochloa crus galli): 80%
- pest or weed control at 80 g/ha (Viola tricolor [3]): 70%

SMILES: CSc1c(S(C)(=O)=O)ccc(C(=O)c2c(C3CC3)nn(C)c2O)c1C [drawing 30, reference compound]
- pest or weed control at 80 g/ha (Xanthium strumarium): 60%
- pest or weed control at 80 g/ha (Echinochloa crus galli): 80%
- pest or weed control at 80 g/ha (Viola tricolor [3]): 70%

SMILES: COCCSc1c(C(F)(F)F)ccc(C(=O)c2c(C3CC3)nn(C)c2O)c1C [drawing 45]
- pest or weed control at 20 g/ha (Echinochloa crus galli): 80%
- pest or weed control at 20 g/ha (Abutilon theophrasti [4]): 80%

SMILES: CCSc1c(Cl)ccc(C(=O)c2c(C3CC3)nn(C)c2O)c1C [drawing 40, reference compound]
- pest or weed control at 80 g/ha (Stellaria media): 90%
- Herbicidal activity in % against PHBPU (Pharbitis purpureum): 40%
- pest or weed control at 80 g/ha (Echinochloa crus galli): 80%
- pest or weed control at 80 g/ha (Matricaria inodora [2]): 40%

SMILES: COCCSc1c(S(C)(=O)=O)ccc(C(=O)c2c(C3CC3)nn(C)c2O)c1Cl [No. 1-3, 4-(2-chloro-3-(2-methoxyethyl)thio-4-methylsulfonylbenzoyl)-3-cyclopropyl-5-hydroxy-1-methylpyrazole]
- pest or weed control at 80 g/ha (Stellaria media): ≥ 90%
- pest or weed control at 80 g/ha (Abutilon theophrasti [4]; [7]): ≥ 90%

SMILES: CCSc1c(C(F)(F)F)ccc(C(=O)c2c(C3CC3)nn(C)c2O)c1C
- Herbicidal activity in % against ABUTH (Abutilon theophrasti [5]): 90%
- pest or weed control at 320 g/ha (Matricaria inodora [6]): 0%

SMILES: CSc1c(C(F)(F)F)ccc(C(=O)c2c(C3CC3)nn(C)c2O)c1C [drawing 46, reference compound]
- pest or weed control at 20 g/ha (Echinochloa crus galli): 60%
- pest or weed control at 20 g/ha (Abutilon theophrasti [4]): 70%

SMILES: Cc1c(C(=O)c2c(C3CC3)nn(C)c2O)ccc(Cl)c1SCC1CC1 [drawing 39]
- Herbicidal activity in % against STEME (Stellaria media): 100%
- Herbicidal activity in % against PHBPU (Pharbitis purpureum): 70%
- pest or weed control at 80 g/ha (Echinochloa crus galli): 90%
- pest or weed control at 80 g/ha (Matricaria inodora [2]): 70%
